From patent publication US6281349A, “Method for nucleic acid purification using iodine” (priority 2000, dated 2001)

Experiments:
Assay type in all cases: biochemical
[1] = biological target: T1, Endonuclease I (Endo I), endogenous, E. coli NM522 (EndoI+) (Escherichia coli, UniProt P25736); test: Residual nuclease activity test after iodine miniprep (Mg/Ca incubation, supercoiled to nicked plasmid); details: preferred embodiment, 5 mM MgCl2, CaCl2, 90 minutes at 37° C., no exogenous nuclease
T1 construct: due to either the endogenous Endo I or to residual activity of either of the added nucleases; endogenous in cells; host or cells: E. coli NM522 (EndoI+)
Procedure: (§1) Cells from 1 mL of terrific broth culture of pUC18 in NM522 (EndoI+) were resuspended in 0.2 mL of resuspension buffer (A). #1: No exogenous nuclease, #2:5 micrograms Micrococcal nuclease (MN) (300 units Boehringer Mannheim), #3:5 Units DNaseI (Promega), were added to the respective cell samples before processing for the preparation of the plasmid. After processing by the preferred embodiment Iodine miniprep procedure an aliquot of each sample was made 5 mM each in MgCl2, CaCl2 and 20 mM Tris.HCl pH 8.3. After 90 minutes at 37° C. these were electrophoresed (bottom group) together with aliquots that had not been exposed to Mg/Ca (top group) in a 1% agarose gel with SYBR green II fluorescent dye for detection of nucleic acids.

[2] = biological target: T2, Micrococcal nuclease (MN) (Boehringer Mannheim) (Staphylococcus aureus, UniProt P00644); test: as above; details: 5 micrograms MN (300 units) added to cells, 5 mM MgCl2, CaCl2, 90 minutes at 37° C.
T2 construct: purchased Boehringer Mannheim
Procedure: as §1

[3] = biological target: T3, DNaseI (Promega) (Bos taurus, UniProt P00639); test: as above; details: 5 Units DNaseI added to cells, 5 mM MgCl2, CaCl2, 90 minutes at 37° C.
T3 construct: purchased Promega
Procedure: as §1

[4] = biological target: T4, Ribonuclease A (RNAase A, pancreatic ribonuclease) (Bos taurus, UniProt P61823); test: Residual RNAase activity test of plasmids purified with or without iodine (wheat germ rRNA degradation); details: 50 mM iodine during potassium acetate precipitation, RNAase A 10 micrograms/mL in cell resuspension buffer, 37° C., 30 min
T4 sequence (P61823 27-150): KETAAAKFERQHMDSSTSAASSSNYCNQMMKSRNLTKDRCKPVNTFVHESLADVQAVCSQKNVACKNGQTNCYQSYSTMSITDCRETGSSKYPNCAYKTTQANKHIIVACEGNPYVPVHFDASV
Procedure: Plasmids were purified by two methods both using RNAase A at 10 micrograms/mL in the cell resuspension buffer. In the right hand sample 50 mM iodine was included during potassium acetate precipitation of unwanted cellular components. In the center lane iodine was not included in the potassium acetate buffer. These purified plasmid preparations, "plasmid+I2 " and "plasmid-I2 ", respectively were incubated with wheat germ RNA in a sensitive assay designed to test for the presence residual RNAase activity. Wheat germ rRNA (0.5 micrograms in 5 microlitres of resuspension buffer: Soln A) was incubated at 37° C. for 30 min either alone or with 2 microlitres of purified plasmid dissolved in Soln A. The resulting samples were electrophoresed in the presence of SYBR green II to detect the nucleic acids. The 28s and 18s components of wheat germ rRNA were not degraded when incubated with buffer alone (left channel) or with plasmids purified by the method employing RNAase A and iodine (right channel). The rRNA was degraded when incubated with plasmids purified with RNAase and without iodine (center channel).

T1 sequence (P25736 23-235): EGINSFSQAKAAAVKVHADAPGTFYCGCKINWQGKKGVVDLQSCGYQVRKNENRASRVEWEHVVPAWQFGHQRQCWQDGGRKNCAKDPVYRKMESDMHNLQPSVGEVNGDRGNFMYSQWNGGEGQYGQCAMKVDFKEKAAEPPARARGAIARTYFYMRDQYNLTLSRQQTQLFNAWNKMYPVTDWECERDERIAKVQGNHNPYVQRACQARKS
T3 sequence (P00639 23-282): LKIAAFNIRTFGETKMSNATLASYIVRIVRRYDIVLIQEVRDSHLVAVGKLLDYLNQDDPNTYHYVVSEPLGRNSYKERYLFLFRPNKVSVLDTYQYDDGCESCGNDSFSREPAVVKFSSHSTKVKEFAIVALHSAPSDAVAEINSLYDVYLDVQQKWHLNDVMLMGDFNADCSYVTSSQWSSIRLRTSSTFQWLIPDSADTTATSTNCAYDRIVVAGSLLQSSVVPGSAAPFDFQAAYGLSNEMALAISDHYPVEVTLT

II [iodine]
inactivation of Endo I by iodine [1]: lack of conversion of supercoiled plasmid (I) to nicked (II)
inactivation of Micrococcal nuclease by iodine [2]: lack of conversion of supercoiled plasmid (I) to nicked (II)
inactivation of DNaseI by iodine [3]: lack of conversion of supercoiled plasmid (I) to nicked (II)
inactivation of RNase by iodine [4]: effective in inactivating RNAase
